According to patent publication US9322034B2, “Compositions and methods for detecting and modulating cell death by a translation regulated gene expression system” (Wayne State University, priority 2007, dated 2016):

Tests used:
[1] = system: HEK293 TRplp-fLUC (subclone #3) and TRdm-fLUC (subclone #45) cells; experiment: Microplate reader dose response, lysed cell luciferase assay; assay type: cell-based, human; details: 12 hr
Experimental: For this example, HEK293 cells expressing the TRplp-EYFP, TRdm-EYFP, TRplp fLUC and TRdm-fLUC expression cassettes are evaluated using a microplate reader. To quantitate the TR translational response, 24,000 cells are plated in a 96-well microtiter plates and allowed to grow for about 40 hr to achieve the proper cell density prior to incubation with a toxic agent. Each well is cultured with complete DMEM medium containing either no toxin or a defined concentration of toxin and incubated at 37 C for specific time periods. At that time, fluorescence or chemiluminescence on a FLUOstar Optima (BMG Labtech) microplate reader is used measure TR-ORF response.
For a lysed cell assay, cells are cultured as above, but in regular flat bottom 96-well trays. After toxin incubation, the 96-well plates are centrifuged as above. The media is removed, replaced with 50 microliters of Cell Lysis Buffer (25 mM Tris-phosphate (pH7.8), 10% glycerol, 1% TritonX-100, 1 mg/ml BSA, 2 mM EGTA and 2 mM DTT) and incubated for 10 min at RT. Cell lysis is verified using a phase contrast microscope, and the lysates transferred to a white bottom 96-well tray. Luminescence is developed by injection of 5 microliters of D-luciferin solution dissolved in Reaction Buffer (25 mM Glycylglycine (pH 7.8), 15 mM MgSO4, 4 mM EDTA, 15 mM Potassium phosphate, 1 mM DTT, 1 mM Coenzyme A, 6.7 mM ATP and 3.35 mM D-luciferin). After 4 sec with shaking, luminescence values were measured using the lens filter at gains of 2000-3000.
Dose response assays are necessary to define toxic concentrations of candidate cytotoxic agents. To establish a TR-mediated cellular response and identify a TR effective dose, HEK293 cells transformed with the TRplp-fLUC (subclone #3) and TRdm-fLUC (subclone #45) expression cassettes are subjected to a range of subtoxic to toxic concentrations of the calcium ionophore A23187 (0, 1 nM, 10 nM, 100 nM, 1 μM, 2 μM, 4 μM, 6 μM, 8 μM, 10 μM) for 12 hr and analyzed as described above using a lysed cell luciferase assay (FIG. 10).

[2] = system: HEK293 cells transduced with rBAC TRplp-EYFP / TRdm-EYFP; experiment: TR-EYFP translation after rBAC transduction; assay type: cell-based, human; details: 5 μM, 24 hr
Experimental: This example is to show delivery of the TRplp-EYFP and TRdm-EYFP cassettes to HEK293 cells using rBAC transduction. HEK293 cells are plated on flame sterilized glass slides and grown until 60-70% confluent (1-2 days), washed with serum-free DMEM, and infected with rBAC for 1-2 hr. The medium is replaced with DMEM, 10% FBS and the cells incubated for 24 hours. Infected cells were treated with DMEM, 10% FBS supplemented with 5 μM calcium ionophore A23187 for 24 hr prior to direct microscopic examination.

Compound: CNc1ccc2oc(C[C@H]3O[C@@]4(CC[C@H]3C)O[C@H]([C@H](C)C(=O)c3ccc[nH]3)[C@H](C)C[C@H]4C)nc2c1C(=O)O [calcium ionophore A23187]
- fLuc activity at the 8-10 μM toxin concentrations ([1]; 8-10 μM): decline in fLuc activity
- concentration of peak in fLUC values ([1]; raw luciferase numbers): 6 µM
- concentration at which TR-mediated translation is initially detected ([1]; raw luciferase numbers, each cassette): 1 µM
- TR-specific translational activity at lower subtoxic doses ([1]; below 1 μM (1 nM, 10 nM, 100 nM)): no apparent TR-specific translational activity
- translation of EYFP in rBAC transduced cells compared to uninfected control cells [2]: exhibit selective translation of the fluorescent EYFP protein
